The source of these data is PubChem BioAssay (NCI).

Among the test systems are TK-10 renal; NCI-H522 lung; NCI-H23 lung; ACHN renal; SW-620 colon; OVCAR-5 ovarian; U251 CNS; MDA-N; DU-145 prostate; OVCAR-3 ovarian; HCT-15 colon; PC-3 prostate; HCC-2998 colon; T-47D breast; NCI/ADR-RES ovarian; CAKI-1 renal; SNB-19 CNS; MDA-MB-231 breast; UACC-62 melanoma.
What all share (test): growth of human tumour cells (NCI), 48 h

Structures are written as SMILES.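 How tested: cells in 96-well plates exposed to compound for 48 hours at five concentrations. TGI denotes the concentration required for complete inhibition of growth.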

As for `O=C(O)c1nc2ccc(Cl)cc2[nH]c1=O`, the TGI in the experiment with TK-10 renal, in the experiment with NCI-H522 lung, with NCI-H23 lung, with ACHN renal, with SW-620 colon and in the experiment on OVCAR-5 ovarian was more than 100 µM in each case. The TGI with U251 CNS, in the experiment with MDA-N, with DU-145 prostate, in the experiment with OVCAR-3 ovarian, in the experiment with HCT-15 colon and with PC-3 prostate was more than 100 µM each time. Besides, the TGI in the experiment with HCC-2998 colon, in the experiment with T-47D breast, in the experiment with NCI/ADR-RES ovarian, in the experiment with CAKI-1 renal, with SNB-19 CNS and in the experiment on MDA-MB-231 breast was more than 100 µM in each case. Besides, in the experiment with UACC-62 melanoma, the TGI is more than 100 µM.

Consider `C[C@@H](CC(=O)O)OC1OC(COC(=O)C(C)(C)C)C(OC(=O)C(C)(C)C)C(OC(=O)C(C)(C)C)C1OC(=O)C(C)(C)C` (stereo partly specified), for which the TGI in the experiment with TK-10 renal is more than 100 µM; with NCI-H522 lung, more than 100 µM; in the experiment on NCI-H23 lung it was 93.5 µM; in the experiment on ACHN renal, 64.4 µM; with SW-620 colon, more than 100 µM; in the experiment on OVCAR-5 ovarian it was more than 100 µM. Besides, the TGI in the experiment on U251 CNS is more than 100 µM; in the experiment with MDA-N it was more than 100 µM; in the experiment with DU-145 prostate, more than 100 µM; with OVCAR-3 ovarian, more than 100 µM; with HCT-15 colon, 84.9 µM; with PC-3 prostate, more than 100 µM. The TGI with HCC-2998 colon was more than 100 µM; with T-47D breast, more than 100 µM; with NCI/ADR-RES ovarian, more than 100 µM; in the experiment with CAKI-1 renal, more than 100 µM; in the experiment with SNB-19 CNS it was 98.2 µM; with MDA-MB-231 breast, more than 100 µM. For the same compound, the TGI in the experiment with UACC-62 melanoma was more than 100 µM.

On to `CC1=NN(c2nc(N)nc(CSc3cc(Cl)c(C)cc3S(N)(=O)=O)n2)C(C)(C)C1`, for which the TGI in the experiment with TK-10 renal, in the experiment on NCI-H522 lung, with NCI-H23 lung, in the experiment with ACHN renal, with SW-620 colon and in the experiment on OVCAR-5 ovarian was more than 10 µM each time. Moreover, the TGI with U251 CNS, in the experiment with MDA-N, in the experiment on DU-145 prostate, with OVCAR-3 ovarian, in the experiment on HCT-15 colon and in the experiment on PC-3 prostate was more than 10 µM each time. The TGI with HCC-2998 colon, in the experiment with T-47D breast, with NCI/ADR-RES ovarian, in the experiment with CAKI-1 renal, in the experiment on SNB-19 CNS and in the experiment on MDA-MB-231 breast was more than 10 µM throughout. The same compound yielded a TGI in the experiment on UACC-62 melanoma of more than 10 µM.

Take `C=C1C(=O)O[C@H]2C1C[C@@H](O)/C(C)=C/CC[C@@]1(C)O[C@H]21` (stereo partly specified): the TGI in the experiment with TK-10 renal is 33.4 µM; with NCI-H522 lung it was 15.1 µM; with NCI-H23 lung, 31.9 µM; with ACHN renal it was 37.7 µM; with SW-620 colon, 17.9 µM; in the experiment on OVCAR-5 ovarian it was more than 53.8 µM. The TGI with U251 CNS was more than 53.2 µM; with MDA-N it was more than 50.9 µM; with DU-145 prostate, more than 56 µM; in the experiment with OVCAR-3 ovarian, 21.5 µM; in the experiment with HCT-15 colon, 58.8 µM; with PC-3 prostate, more than 49.3 µM. For the same compound, the TGI with HCC-2998 colon was more than 52.6 µM; with T-47D breast, 50 µM; with NCI/ADR-RES ovarian, more than 87.9 µM; in the experiment on CAKI-1 renal it was 12.5 µM; in the experiment on SNB-19 CNS, more than 100 µM; with MDA-MB-231 breast it was 44.8 µM. Also, the TGI in the experiment with UACC-62 melanoma is more than 54.2 µM.

Turning to `CCCN(CCC)C(=S)N/N=C(/C)c1ccccc1O`, the TGI with TK-10 renal was 66.4 µM; in the experiment with NCI-H522 lung, 25.5 µM; in the experiment on NCI-H23 lung, more than 68.2 µM; with ACHN renal it was more than 51.9 µM; in the experiment on SW-620 colon, more than 100 µM; with OVCAR-5 ovarian it was more than 62.9 µM. The TGI was more than 57.8 µM in the experiment on U251 CNS; more than 100 µM in the experiment with MDA-N; more than 100 µM in the experiment with DU-145 prostate; 14.9 µM with OVCAR-3 ovarian; more than 93.2 µM in the experiment with HCT-15 colon; more than 100 µM in the experiment on PC-3 prostate. Moreover, the TGI in the experiment on HCC-2998 colon was more than 100 µM; in the experiment with T-47D breast, more than 28.9 µM; with NCI/ADR-RES ovarian, 5.57 µM; in the experiment on CAKI-1 renal, more than 100 µM; with SNB-19 CNS it was more than 100 µM; with MDA-MB-231 breast, 52.8 µM. In addition, the TGI in the experiment with UACC-62 melanoma was 15.1 µM.

In the case of `CCCCN(CCCC)CCC(O)c1cc(-c2ccc(C(F)(F)F)cc2)nc(-c2ccc(C(F)(F)F)cc2)c1` (stereo unspecified), the TGI in the experiment on TK-10 renal, in the experiment with NCI-H522 lung, in the experiment with NCI-H23 lung, with ACHN renal, in the experiment with SW-620 colon and in the experiment on OVCAR-5 ovarian was more than 100 µM each time. Further, the TGI in the experiment with U251 CNS, in the experiment with MDA-N, in the experiment with DU-145 prostate, in the experiment on OVCAR-3 ovarian, in the experiment with HCT-15 colon and in the experiment with PC-3 prostate was more than 100 µM each time. Also, the TGI in the experiment with HCC-2998 colon, in the experiment with T-47D breast, in the experiment with NCI/ADR-RES ovarian, in the experiment with CAKI-1 renal, in the experiment with SNB-19 CNS and in the experiment on MDA-MB-231 breast was more than 100 µM each time. Moreover, in the experiment on UACC-62 melanoma, the TGI is more than 100 µM.

Turning to `CC(=O)c1c(SCCN2CCOCC2)n(-c2ccccc2)c(=S)n(-c2ccccc2)c1=O`, the TGI in the experiment on TK-10 renal is 31.2 µM; in the experiment on NCI-H522 lung it was 48.4 µM; with NCI-H23 lung, more than 64.5 µM; in the experiment with ACHN renal it was 30.1 µM; with SW-620 colon, 49.9 µM; in the experiment on OVCAR-5 ovarian, more than 100 µM. Further, the TGI is more than 57 µM in the experiment on U251 CNS; 47.9 µM in the experiment with MDA-N; 22.7 µM in the experiment on DU-145 prostate; 29.3 µM in the experiment on OVCAR-3 ovarian; 48.6 µM in the experiment with HCT-15 colon; 32 µM in the experiment with PC-3 prostate. Besides, the TGI with HCC-2998 colon was 28.5 µM; in the experiment with T-47D breast it was 55.5 µM; in the experiment with NCI/ADR-RES ovarian, more than 100 µM; in the experiment on CAKI-1 renal it was more than 52.3 µM; with SNB-19 CNS it was more than 55.2 µM; in the experiment with MDA-MB-231 breast, 37.1 µM. This compound also came in with a TGI in the experiment on UACC-62 melanoma of 29.5 µM.

`CN(CCNC(=O)c1c[nH]c2c1ccc1ccccc12)CCNC(=O)c1c[nH]c2c1ccc1ccccc12`: the TGI amounted to 9.75 µM in the experiment on TK-10 renal; 3.45 µM in the experiment with NCI-H522 lung; 11.3 µM in the experiment with NCI-H23 lung; 4.72 µM in the experiment on ACHN renal; 3.08 µM in the experiment with SW-620 colon; 12.3 µM in the experiment on OVCAR-5 ovarian. In addition, the TGI worked out at 4.03 µM with U251 CNS; 5.63 µM in the experiment with MDA-N; 5.06 µM in the experiment on DU-145 prostate; 17.3 µM with OVCAR-3 ovarian; 3.83 µM in the experiment on HCT-15 colon; 6.68 µM with PC-3 prostate. Moreover, the TGI worked out at 2.87 µM in the experiment on HCC-2998 colon; 2.7 µM in the experiment with T-47D breast; 13.1 µM in the experiment with NCI/ADR-RES ovarian; 10.1 µM in the experiment on CAKI-1 renal; 6.23 µM in the experiment with SNB-19 CNS; 3.2 µM with MDA-MB-231 breast. For the same compound, the TGI in the experiment with UACC-62 melanoma is 3.46 µM.

Regarding `COC1=N[C@H](C(C)C)C(OC)=N[C@H]1Cc1ccc(C[C@@H]2N=C(OC)[C@@H](C(C)C)N=C2OC)s1`, the TGI was more than 100 µM with TK-10 renal; 63.2 µM with NCI-H522 lung; 72.9 µM with NCI-H23 lung; more than 100 µM in the experiment on ACHN renal; more than 100 µM in the experiment with SW-620 colon; 77.9 µM with OVCAR-5 ovarian. In addition, the TGI in the experiment on U251 CNS is 70.5 µM; in the experiment with MDA-N, more than 100 µM; with DU-145 prostate, more than 100 µM; in the experiment on OVCAR-3 ovarian it was more than 100 µM; with HCT-15 colon it was more than 100 µM; with PC-3 prostate, 69.2 µM. Also, the TGI was more than 100 µM in the experiment with HCC-2998 colon; 38.9 µM in the experiment with T-47D breast; more than 100 µM in the experiment on NCI/ADR-RES ovarian; more than 100 µM in the experiment on CAKI-1 renal; more than 100 µM with SNB-19 CNS; more than 100 µM with MDA-MB-231 breast. In the experiment on UACC-62 melanoma, this compound had a TGI of more than 100 µM.
